Assay results taken from patent US20090118135A1, “METHODS AND COMPOUNDS FOR REGULATING APOPTOSIS” (The Burnham Institute, priority 2007, published 2009).
Several values for one entry are separate records, joined by “and”; a condition that tells them apart may be missing. Equal values may be shown once. Read-outs that look alike come from different tables or passages of the source.

Key:
GST-Bcl-B [1] = target: T1, GST-Bcl-B (Homo sapiens, UniProt Q9HD36); test: biochemical
T1 sequence (Q9HD36 1-182 limits assumed): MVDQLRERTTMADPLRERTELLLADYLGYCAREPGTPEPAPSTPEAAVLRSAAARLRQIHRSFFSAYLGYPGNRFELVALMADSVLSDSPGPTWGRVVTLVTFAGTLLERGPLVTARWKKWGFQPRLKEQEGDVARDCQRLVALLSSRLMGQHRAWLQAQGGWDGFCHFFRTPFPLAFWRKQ

GST-Bcl-B [2] = target: T1, GST-Bcl-B; test: Bcl-B/FITC-TR3-r8 fluorescence polarization competition (displacement) assay, HTS and dose-response; settings: for Bcl-B H Coefficient: Hill coefficient of Bcl-B dose-response curve
[3] = LOPAC1280 library primary screen
[4] = LOPAC1280 library, fluorescence intensity normalized to plate negative controls
[5] = read-out: Result Value (% Inhibition)
[6] = read-out: Result Value (% Inhibition), LOPAC1280 (Sigma-Aldrich) library, BCL-b/TR3 Binding Assay, FP, Concentration 0.02 uM, % competition

SMILES	IC50 (GST-Bcl-B [1])	Bcl-B H Coefficient (GST-Bcl-B [2])	Is Hit (GST-Bcl-B [2]; [3])	F Ratio (GST-Bcl-B [2]; [4])	inhibition at 0.02 µM (GST-Bcl-B [2]; [5]) [%]	further results
Oc1cccc(/C=N/C2=C(c3ccco3)N=C3C=CC=CC32)c1 (stereo not shown) [Compound 5612880]	9.1 µM and 9.07 µM	0.5836				
CCOc1ccc(/C=C(/NC(=O)c2ccc(C)cc2)C(=O)NCCO)cc1 [Compound 5650022]	13.3 µM	1.428				
O=C(O)C1Nc2ccc3ccccc3c2C2C=CCC12 (stereo not shown) [Compound 5657743]	7.15 µM	3.005				
Cc1c(Cl)ccc2c1NC(C(=O)O)C1CC=CC21 (stereo not shown) [Compound 5659221]	5.21 µM	0.6773				
COc1cc(C2Nc3ccc4ccccc4c3C3=C2C(=O)CC(C)(C)C3)c(Br)cc1O (stereo not shown) [Compound 5660965]	13.1 µM	1.507				
O=C(O)C1Nc2c(cccc2[N+](=O)[O-])C2C=CCC12 (stereo not shown) [Compound 5665283]	1.2 µM	1.829				
CCSc1nc(NN)c2c3c(sc2n1)CN(C)CC3 [Compound 5683054]	7.43 µM	1.332				
Cn1c(=O)cc2c3c(c(Nc4ccc(C=O)cc4)ccc31)C(=O)c1ccccc1-2 [Compound 5719776]	8.04 µM	2.489				
Cc1cc(C)nc(NC(=N)Nc2ccc(N)cc2)n1 [Compound 5805360]	5.38 µM	1.878				
O=C1NN(c2ccc(F)c(Cl)c2)C(=O)/C1=C\c1ccco1 [Compound 5837788]	33.4 µM	1.772				
C=CCN1C(=O)NC(=O)/C(=C/c2cccn2-c2cccc([N+](=O)[O-])c2)C1=O [Compound 5987504]		1.773				IC50 (GST-Bcl-B [2]; Bcl-B IC50 (g/L)): 5.59 µM; IC50 (GST-Bcl-B [2]; Bcl-B IC50 (uM)): 5.36 µM
O=[N+]([O-])c1cc(O)c(O)c([N+](=O)[O-])c1 [Compound D-131]			Yes	0.1464		Result Value (% Inhibition) (GST-Bcl-B [2]; LOPAC1280 (Sigma-Aldrich) library, BCL-b/TR3 Binding Assay, FP, Concentration 0.02 uM, % competition): 68.095%
O=C(c1cc(O)c(O)c([N+](=O)[O-])c1)c1ccccc1F [Compound R-108]			Yes	0.1164	69.6	
Nc1c(S(=O)(=O)O)cc(Nc2ccc(Nc3nc(Cl)nc(Nc4ccc(S(=O)(=O)O)cc4)n3)c(S(=O)(=O)O)c2)c2c1C(=O)c1ccccc1C2=O [Compound R-115]			Yes	0.1652	80.8	
CN(N=O)c1cc(O)ccc1O [D 8065]			Yes	0.1152		inhibition at 0.02 µM (GST-Bcl-B [2]; [6]): 95.3%
NC(Cc1cc(O)c(O)cc1O)C(=O)O (stereo not shown) [H 2380]					136	F Ratio (GST-Bcl-B [2]): 0.06315; Is Hit (GST-Bcl-B [2]): Yes
O=c1cc(O)cc(/C=C/c2ccc(O)c(O)c2)o1 [H 5257]			Yes	0.0971	77	
O=C1c2c(O)ccc(O)c2C(=O)c2c(NCCNCCO)ccc(NCCNCCO)c21 [M 6545]			Yes	1.1021	148	
O=c1c(O)c(-c2cc(O)c(O)c(O)c2)oc2cc(O)cc(O)c12 [M 6750]			Yes	0.1247	61	
CN(N=O)c1ccc(O)c(O)c1 [M 9440]			Yes	0.08483		inhibition at 0.02 µM (GST-Bcl-B [2]; [6]): 121%
O=C(Nc1cc(C(=O)Nc2ccc(S(=O)(=O)O)cc2S(=O)(=O)O)cc(C(=O)Nc2ccc(S(=O)(=O)O)cc2S(=O)(=O)O)c1)Nc1cc(C(=O)Nc2ccc(S(=O)(=O)O)cc2S(=O)(=O)O)cc(C(=O)Nc2ccc(S(=O)(=O)O)cc2S(=O)(=O)O)c1 [N 4784]			Yes	1.0398	64.7	
C[C@H](Cc1ccc(O)c(O)c1)[C@@H](C)Cc1ccc(O)c(O)c1 [N 5023]			Yes	0.09564	67.5	
Cc1nc(/N=N\c2cc(S(=O)(=O)O)c3cc([N+](=O)[O-])cc(S(=O)(=O)O)c3c2)c(COP(=O)(O)O)c(C=O)c1O [P 2738]			Yes	0.2636	66.6	
O=c1c(O)c(-c2ccc(O)c(O)c2)oc2cc(O)cc(O)c12 [Q 0125]			Yes	0.1424	52	
[NH3+][Ru]([NH3+])([NH3+])([NH3+])([NH3+])[O][Ru]([NH3+])([NH3+])([NH3+])([NH3+])[O][Ru]([NH3+])([NH3+])([NH3+])([NH3+])[NH3+] [R 2751]			Yes	1.1267		
N#C/C(=C\c1ccc(O)c(O)c1)C(=O)c1ccc(O)c(O)c1 [T 7822]			Yes	0.1036	61.7	
